{"source": "patent US20240254156A1", "about": "“NOVEL ISOFLAVONE COMPOUND” (NABOCUL COSMETICS CO., LTD., priority 2021, published 2024)", "key": {"aquaporin 3 (AQP3) gene": {"test_system": "aquaporin 3 (AQP3) gene", "assay": "aquaporin 3 gene mRNA expression in HaCaT cells (QPCR)", "type": "cell-based, human", "description": "(§1) The Ceratonia siliqua C obtained in Example 2 was used to examine the effect of the Ceratonia siliqua C on the expression of aquaporin 3 (AQP3) gene and filaggrin 2 (FLG2) gene in a HaCaT cell, a human epidermis-derived keratinocyte cell line.\n(§2) First, the HaCaT cells were cultured in a DMEM medium (containing 10% FBS, 100 U/mL penicillin and […] streptomycin) in the presence of 5% CO2 at 37° C. and saturated humidity. Next, the HaCaT cells adjusted to a cell concentration of 5×10^5 cells/mL were seeded in each well of a 6-well cell culture plate and cultured in a CO2 incubator (5% CO2, 37° C.) for 24 hours. Thereafter, the Ceratonia siliqua C isolated in Example 2 was added to each well to provide a final concentration different from each other. Specifically, the final concentrations of Ceratonia siliqua C in the HaCaT cell culture medium were 1 μM, 5 μM, 10 μM, 50 μM and 100 μM, respectively. A well without the Ceratonia siliqua C added was used as a control (0 μM). After addition, they were subjected to culture for 24 hours.\n(§3) After completion of the culture, the HaCaT cells were collected from each well, and total RNA was extracted with an RNA extraction reagent (RNAzol®, a product available from Molecular Research Center, Inc.). […]"}, "filaggrin 2 (FLG2) gene": {"test_system": "filaggrin 2 (FLG2) gene", "assay": "filaggrin 2 gene mRNA expression in HaCaT cells (QPCR)", "type": "cell-based, human", "description": "as §1, §2, §3"}, "[1]": {"test_system": "IL-6 production in RAW264.7 cells", "assay": "LPS-induced IL-6 production in RAW264.7 cells (ELISA)", "type": "cell-based, mouse", "settings": "1, 5, 10, 50 and 100 μM, added 3 h before LPS 1 μg/mL, supernatant after 24 h, FIG. 11", "description": "The Ceratonia siliqua C obtained in Example 2 was used to examine the effect of the Ceratonia siliqua C on the production of IL-6 that is an inflammatory cytokine.\nIn this test, an RAW264.7 cell, a mouse macrophage-derived cell line was used. RAW264.7 cells were cultured in a DMEM medium (containing 10% FBS, 100 U/mL penicillin and […] streptomycin) in the presence of 5% CO2 at 37° C. and saturated humidity.\nEach well of a 96-well plate was seeded with 8×10^3 RAW264.7 cells, and the cells were cultured in a CO2 incubator for 24 hours. This was divided into a blank control group, a positive control group and a test group. A 100 μL portion of a DMEM medium was added to each well of the blank control group; a 100 μL portion of a solution of dexamethasone (DXM) dissolved in the DMEM medium was added to each well of the positive control group (a final concentration of dexamethasone: 20 μM); and a 100 μL portion of each of solutions obtained by appropriately diluting the Ceratonia siliqua C with the DMEM medium was added to each well of the test group to provide a different concentration from each other (final concentration: 1 μM, 5 μM, 10 μM, 50 μM and 100 μM). 3 hours later, LPS (1 μg/mL) was added to each well to induce inflammation. 24 hours later, the supernatant was collected and the IL-6 content in the supernatant was measured with an IL-6 quantitative ELISA kit. […]"}, "[2]": {"settings": "10 μM (highest expression promoting effect), 24 h, relative to control"}}, "data": [{"smiles": "COc1ccc(-c2coc3c(OC)c(O)c(O[C@@H]4O[C@H](CO)[C@@H](O)[C@H](O)[C@H]4O)cc3c2=O)cc1", "note": "[Ceratonia siliqua C]", "values": [{"measurement": "increase of mRNA expression level of aquaporin 3", "setting": "aquaporin 3 (AQP3) gene; [2]", "value": 2.5, "unit": "times"}, {"measurement": "mRNA expression level of aquaporin 3 compared to the control", "setting": "aquaporin 3 (AQP3) gene; 1-100 μM, 24 h culture, FIG. 12", "value": "greatly increased the mRNA expression level"}, {"measurement": "increase of mRNA expression level of filaggrin 2", "setting": "filaggrin 2 (FLG2) gene; [2]", "value": 1.35, "unit": "times"}, {"measurement": "mRNA expression level of filaggrin 2 compared to the control", "setting": "filaggrin 2 (FLG2) gene; 1-100 μM, 24 h culture, FIG. 13", "value": "greatly increased the mRNA expression level"}, {"measurement": "production of IL-6 by LPS induction", "setting": "[1]", "value": "inhibit the production of IL-6 in a concentration-dependent manner"}]}]}
